# According to PubChem BioAssay (NCI):
# Several values for one entry are separate records, joined by “and”; a condition that tells them apart may be missing. Identical values can stand only once.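 All cell lines were grown in 96-well plates and treated with compound for 48 hours. GI50 = concentration required for 50% inhibition of growth. At the TGI there is no net growth.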
# Test system: MDA-MB-468 breast
# Experiment: NCI anticancer screen, dose series, 48 h
Compound,GI50,TGI
CCCn1cc(/C=N\N=C2\C(=O)Nc3ccc(C)cc32)c2ccccc21,1.69 µM,5.78 µM
O=C(C(=O)c1cccnc1)c1cccnc1,> 100 µM,> 100 µM
CC[C@H](C)[C@H](NC(=O)[C@H]1CCCCN1C)C(=O)N(C)[C@H](C[C@@H](OC(C)=O)c1nc(C(=O)NC23C4C5C2C2C3C4C52C(=O)OC)cs1)C(C)C (stereo partly specified),0.000428 µM and < 0.0025 µM,0.00695 µM and < 0.0025 µM
CC[C@H](C)C(=O)O[C@H]1CCC=C2C=C[C@H](C)[C@H](CC[C@@H]3C[C@@H](O)CC(=O)O3)[C@H]21,3.13 µM,11.6 µM
CN(CCCCCCCCNc1ccnc2ccccc12)Cc1ccc(-c2ccc(-c3ccc(C#N)cc3)s2)cc1,0.0698 µM,1.29 µM
N#Cc1ccc(O)c(C2=NCC(c3ccc(-c4ccccc4)cc3)O2)c1 (stereo unspecified),0.256 µM,1.81 µM
COc1ccc2[nH]cc(C3(c4c[nH]c5ccc(OC)cc45)C(=O)Nc4ccc(Cl)cc43)c2c1,2.5 µM,7.85 µM
COC1/C=C/OC2(C)Oc3c(C)c(O)c4c(O)c(c(/C=N/N(c5ccccc5)c5ccccc5)c(O)c4c3C2=O)NC(=O)C(C)=C/C=C/C(C)C(O)C(C)C(O)C(C)C(OC(C)=O)C1C (stereo unspecified),1.84 µM,7.5 µM
Cn1cc(-c2csc(-c3cn(CCCN4CCCCC4)c4ccc(Br)cc34)n2)c2cccnc21,1.86 µM,3.55 µM
COc1ccc(C(=O)/C=C/c2c(C(F)(F)F)nc3ccccn23)cc1OC,1.81 µM,5.06 µM
COc1ccc(-c2nsc3c2NC(=O)CC3c2cccc(F)c2)cc1 (stereo unspecified),1.94 µM,6.98 µM
CN(C)C[C@@H]1CCn2cc(c3ccccc32)C2=C(C(=O)NC2=O)c2cn(c3ccccc23)CCO1,2.17 µM,> 10 µM
CN1CCN(C(=O)[C@@]2(C)CC[C@]3(C)CC[C@]4(C)C(=CC[C@@H]5[C@@]6(C)CC[C@H](OC(=O)c7cccnc7)C(C)(C)[C@@H]6CC[C@]54C)[C@@H]3C2)CC1,1.71 µM,3.51 µM
CC(=O)OCC1OC([S-])C(OC(C)=O)C(OC(C)=O)C1OC(C)=O.[Au+].c1ccc(CN2[CH-]N(Cc3ccccc3)C(c3ccccc3)=C2c2ccccc2)cc1,1.63 µM and 0.306 µM,3.41 µM and 1.17 µM
Fc1ccc(-c2c(-c3ccncc3)[nH]c3cccnc23)cc1,3.78 µM,24.7 µM
O=C(Nc1cccc(-n2ccc3c(NC(=O)c4ccccc4)nccc32)c1)c1ccc(Cl)c(Cl)c1,0.176 µM,0.903 µM
CC1=C[C@H]2O[C@@H]3C[C@H]4OC(=O)/C=C\C=C\[C@H]([C@@H](C)O)OCC/C(C)=C/C(=O)OC[C@@]2(CC1)[C@]4(C)[C@]31CO1,0.00356 µM,0.0124 µM
CCN(CC)CCNc1ccc(N=Nc2cnc3ccccc3c2)c2ccccc12,1.34 µM,2.64 µM
C#Cc1cccc(Nc2ncnc3ccc(-c4cnc(N)nc4)cc23)c1,0.376 µM,1.77 µM
COc1ccccc1-c1ccc2c(N)c(C(=O)c3ccc4c(c3)OCO4)sc2n1,2.43 µM,8.64 µM
Oc1ccccc1/C=N\Nc1ccccc1,4.93 µM,55.8 µM

Compound,GI50,TGI
CCc1c2c(nc3ccc(OC(=O)OCc4ccc(B5OC(C)(C)C(C)(C)O5)cc4)cc13)-c1cc3c(c(=O)n1C2)COC(=O)[C@]3(O)CC,< 0.01 µM,0.0545 µM
COc1ccc(Cl)cc1Nc1nc(C(F)(F)F)ccc1C(=O)N/N=C/c1ccccc1Cl,1.85 µM,18.5 µM
CCCCNP1(NCCCC)=NP(NCCCC)(NCCCC)=NP(NCCCC)(NCCCC)=NP(NCCCC)(NCCCC)=N1,0.194 µM,2.91 µM
N#Cc1ccc(C(=O)c2cnn(-c3ccc(F)cc3)c2N)cc1,> 25 µM,> 25 µM
O=C(CCN1CCCC1)Nc1ccc2c(Nc3ccc(Br)cc3)c3ccccc3nc2c1,1.72 µM,3.27 µM
O=c1oc2ccc(I)cc2c(=O)n1-c1ccc(I)cc1F,0.521 µM,2.94 µM
CN(C)c1ccc2cc3c(cc2c1)Oc1ccccc1N3.[Cl][Zn][Cl],1.09 µM,3.15 µM
O=C1/C=C/[C@@H](O)[C@@H]2C[C@@H](O)C[C@H]2/C=C/CCC[C@H](CCc2ccc(NC(=S)Nc3ccc4c(c3)C(=O)OC43c4ccc(O)cc4Oc4cc(O)ccc43)cc2)O1,0.178 µM,0.449 µM
Cc1cnc(-c2ccc(-c3ccc(NC(=O)Nc4cccc(C(F)(F)F)c4)cc3F)c3c2C(=O)NC3)[nH]1,12.6 µM,31.1 µM
C=C1C(=O)O[C@H]2[C@H]1CC/C(CNC(=O)C(C)c1ccc(CC(C)C)cc1)=C\CC[C@@]1(C)O[C@@H]21 (stereo partly specified),1.43 µM,3.12 µM
CCN(CC)CCOc1ccc(NC(=O)C(C(C)C)N2C(=O)/C(=C/c3ccc(Br)cc3)SC2=S)cc1 (stereo unspecified),1.92 µM,3.94 µM
CN(C)CCN(C)c1ccc2ncc(C#Cc3cncc(C(=O)Nc4ccc(CN5CCN(C)CC5)c(C(F)(F)F)c4)c3)n2n1,3.08 µM,9.91 µM
COc1ccc(C2CC(c3ccc4ccccc4c3)=NN2c2nc(O)c(C3=c4cc(Cl)ccc4=NC3=O)s2)cc1 (stereo unspecified),0.021 µM and < 0.005 µM,–
Cc1ccc2c(c1)C(=O)/C(=C/c1cccc(OCC(=O)c3ccc(Cl)cc3)c1)CS2,2.41 µM,7.07 µM
COc1ccc2c(c1)C(=O)/C(=C/c1cccc(OCC(=O)c3ccc([N+](=O)[O-])cc3)c1)CO2,1.58 µM,3.51 µM
O=C1NC(c2cccc3ccccc23)Nc2ccccc21 (stereo unspecified),0.127 µM,> 100 µM
COc1cc(C(=O)c2cnc(-c3ccc4cc[nH]c4c3)[nH]2)cc(OC)c1OC,0.0327 µM,2.66 µM
CCCCCCCCCCCCSC1=CC(=O)C=CC1=O,7.09 µM,> 34.6 µM
O=c1[nH][nH]c(=O)c2c(O)c(-c3ccccc3)ncc12,25.2 µM and 48.2 µM,55.8 µM and 235 µM
O=C1c2c(c3c4ccccc4n(CCCCCCN4CCOCC4)c3c3[nH]c4ccccc4c23)C(=O)N1O,1.97 µM,4.69 µM
